According to ChEMBL document CHEMBL1201862, “PubChem BioAssay data set” (2004):
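Protocol summary: plate cells (96-well), add compound at 5 concentrations, incubate 48 h, interpolate endpoints linearly. GI50: concentration for 50% inhibition of growth.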 The source made the active and inactive calls. Cut-off read from the data, not from the text of the source: active = GI50 up to about 1.1 µM and inactive = higher.

Assays:
Test in all cases: growth of human tumour cells (NCI), 48 h
HCC 2998 = system: HCC 2998
HCT-116 = system: HCT-116
HL-60 = system: HL-60
HOP-62 = system: HOP-62
HOP-92 = system: HOP-92
HT-29 = system: HT-29
KM12 = system: KM12
MCF7 = system: MCF7
MDA-MB-231 = system: MDA-MB-231
MOLT-4 = system: MOLT-4
Malme-3M = system: Malme-3M
NCI-H522 = system: NCI-H522
NCI/ADR-RES = system: NCI/ADR-RES
OVCAR-5 = system: OVCAR-5
PC-3 = system: PC-3
RXF 393 = system: RXF 393
SF-268 = system: SF-268
SK-MEL-28 = system: SK-MEL-28
SN12C = system: SN12C
SW-620 = system: SW-620

Row | SMILES | GI50 (HCC 2998) | GI50 (HCT-116) | GI50 (HL-60) | GI50 (HOP-62) | GI50 (HOP-92) | GI50 (HT-29) | GI50 (KM12) | GI50 (MCF7) | GI50 (MDA-MB-231) | GI50 (MOLT-4) | GI50 (Malme-3M) | GI50 (NCI-H522) | GI50 (NCI/ADR-RES) | GI50 (OVCAR-5) | GI50 (PC-3) | GI50 (RXF 393) | GI50 (SF-268) | GI50 (SK-MEL-28) | GI50 (SN12C) | GI50 (SW-620)
1 | CCOC(=O)C(Cl)(NC(=O)c1ccc(F)cc1)C(F)(F)F (stereo not given) | > 100 µM (inactive) | > 100 µM (inactive) | > 100 µM (inactive) | > 100 µM (inactive) | > 100 µM (inactive) | > 100 µM (inactive) | 39.2 µM (inactive) | > 100 µM (inactive) | > 100 µM (inactive) | > 100 µM (inactive) | > 100 µM (inactive) | > 100 µM (inactive) | > 100 µM (inactive) | > 100 µM (inactive) | > 100 µM (inactive) | > 100 µM (inactive) | > 100 µM (inactive) | > 100 µM (inactive) | > 100 µM (inactive) | > 100 µM (inactive)
2 | Cc1ccc(C(=O)C(Cl)C(Cl)c2ccc(C)cc2)cc1 (stereo not given) | 2.03 µM (inactive) | 1.88 µM (inactive) | 1.24 µM (inactive) | 18.1 µM (inactive) | 2.4 µM (inactive) | 2.12 µM (inactive) | 3.68 µM (inactive) | 4.56 µM (inactive) | 5.14 µM (inactive) | 2.03 µM (inactive) | 15.3 µM (inactive) | 2.52 µM (inactive) | 2.55 µM (inactive) | 7.87 µM (inactive) | 5 µM (inactive) | 7.46 µM (inactive) | 5.56 µM (inactive) | 2.68 µM (inactive) | 1.82 µM (inactive) | 2.39 µM (inactive)
3 | COc1cc(C2c3cc4c(cc3OC(NNC(N)=O)C2C)OCO4)cc(OC)c1O (stereo not given) | 2.54 µM (inactive) | 1.58 µM (inactive) | 0.867 µM (active) | 5.48 µM (inactive) | 15.3 µM (inactive) | 3.13 µM (inactive) | 0.813 µM (active) | 1.64 µM (inactive) | 5.05 µM (inactive) | 2.58 µM (inactive) | 0.615 µM (active) | 0.285 µM (active) | 21.3 µM (inactive) | 6.59 µM (inactive) | 1.67 µM (inactive) | 0.598 µM (active) | 8.26 µM (inactive) | 27.4 µM (inactive) | 4.9 µM (inactive) | 1.2 µM (inactive)
4 | C=C1C(=O)O[C@H]2C/C(C)=C/CC/C(C)=C/CC[C@@](C)(O)[C@@H](I)C[C@@H]12 | 12.5 µM (inactive) | 4.14 µM (inactive) | 2.58 µM (inactive) | 16.4 µM (inactive) | 2.34 µM (inactive) | 6.52 µM (inactive) | 5.65 µM (inactive) | 5.57 µM (inactive) | 12.8 µM (inactive) | 2.37 µM (inactive) | 4.49 µM (inactive) | 2.64 µM (inactive) | 6.3 µM (inactive) | 14.5 µM (inactive) | 8.26 µM (inactive) | 3.84 µM (inactive) | 14 µM (inactive) | 13.6 µM (inactive) | 5.06 µM (inactive) | 4.25 µM (inactive)
5 | COC(=O)C1=C(C(=O)OC)C(C(=O)c2ccccc2)N2N=C(c3ccc(Cl)cc3)C=CC12 (stereo not given) | > 100 µM (inactive) | 3.48 µM (inactive) | 3.85 µM (inactive) | > 100 µM (inactive) | > 100 µM (inactive) | 9.59 µM (inactive) | 13.1 µM (inactive) | 75.7 µM (inactive) | > 100 µM (inactive) | 5.69 µM (inactive) | 11.2 µM (inactive) | 5.07 µM (inactive) | 8.07 µM (inactive) | > 100 µM (inactive) | 9.82 µM (inactive) | 4.15 µM (inactive) | 6.55 µM (inactive) | > 100 µM (inactive) | 85.5 µM (inactive) | > 100 µM (inactive)
6 | COc1ccc(/C(C)=N/OC(=O)c2c(-c3ccccc3Cl)noc2C)cc1CN1CCOCC1 | 30.5 µM (inactive) | 18.2 µM (inactive) | 17.1 µM (inactive) | 19.1 µM (inactive) | 24.2 µM (inactive) | 18.3 µM (inactive) | 22.4 µM (inactive) | 20.8 µM (inactive) | 20 µM (inactive) | 24 µM (inactive) | 21.2 µM (inactive) | 17.8 µM (inactive) | 34.1 µM (inactive) | 12.8 µM (inactive) | 24.2 µM (inactive) | 26.3 µM (inactive) | 30.8 µM (inactive) | 19.7 µM (inactive) | 18.7 µM (inactive) | 43.1 µM (inactive)
7 | CC1CCC(=O)C(C(=O)CC2CC(=O)N(C)C(=O)C2)C1 (stereo not given) | > 100 µM (inactive) | > 100 µM (inactive) | > 100 µM (inactive) | > 100 µM (inactive) | > 100 µM (inactive) | > 100 µM (inactive) | > 100 µM (inactive) | > 100 µM (inactive) | > 100 µM (inactive) | > 100 µM (inactive) | > 100 µM (inactive) | > 100 µM (inactive) | > 100 µM (inactive) | > 100 µM (inactive) | > 100 µM (inactive) | > 100 µM (inactive) | > 100 µM (inactive) | > 100 µM (inactive) | > 100 µM (inactive) | > 100 µM (inactive)
8 | COc1cc(C(C[N+](=O)[O-])SC(C)=O)ccc1OCc1ccccc1 (stereo not given) | 8.45 µM (inactive) | 4.13 µM (inactive) | 0.261 µM (active) | 7.18 µM (inactive) | 18.9 µM (inactive) | 2.4 µM (inactive) | 4.85 µM (inactive) | 2.38 µM (inactive) | 4.93 µM (inactive) | 2.25 µM (inactive) | 12.3 µM (inactive) | 0.345 µM (active) | 12.2 µM (inactive) | 14.8 µM (inactive) | 4.47 µM (inactive) | 1.69 µM (inactive) | 6.14 µM (inactive) | 2.54 µM (inactive) | 4.17 µM (inactive) | 3.13 µM (inactive)
9 | CC1(C)C(CBr)=[N+]([O-])C(C)(C)N1O | > 10 µM (inactive) | 2.12 µM (inactive) | > 4.6 µM (inactive) | > 10 µM (inactive) | 2.27 µM (inactive) | > 8.75 µM (inactive) | > 10 µM (inactive) | 4.91 µM (inactive) | > 6.76 µM (inactive) | 2.57 µM (inactive) | 2.49 µM (inactive) | 1.44 µM (inactive) | > 7.24 µM (inactive) | > 10 µM (inactive) | > 10 µM (inactive) | 3.31 µM (inactive) | 9.71 µM (inactive) | > 10 µM (inactive) | 4.04 µM (inactive) | 2.25 µM (inactive)
10 | COC(=O)[C@@H]1C=CCN1S(=O)(=O)c1ccc(C)cc1 | 70.6 µM (inactive) | 34.2 µM (inactive) | 24.2 µM (inactive) | > 100 µM (inactive) | 55.5 µM (inactive) | > 100 µM (inactive) | > 100 µM (inactive) | > 100 µM (inactive) | > 100 µM (inactive) | 37.4 µM (inactive) | 71.6 µM (inactive) | 98.4 µM (inactive) | > 100 µM (inactive) | > 100 µM (inactive) | > 100 µM (inactive) | 50.5 µM (inactive) | > 100 µM (inactive) | 93.1 µM (inactive) | > 100 µM (inactive) | > 100 µM (inactive)
